From PubChem BioAssay AID720512 (Broad Institute, 2013)
Activity calls are given as the source filed them. No rule for the calls is given here.

target: Toxin B (TcdB) glycohydrolase, Clostridioides difficile 630; assay: TcdB glycohydrolase inhibitors, dose response, biochemical, cherry-pick, plate reader (AID 720512); conditions: recombinant TcdB glycohydrolase activity

SMILES | AC50
O=C(Nc1ccc(N2CCOCC2)c(Cl)c1)c1ccc(Cl)cc1 | > 39 µM (inactive)
Cn1c(=O)c2[nH]c(=S)n(Cc3ccccc3)c2n(C)c1=O | 18.2 µM
CCC(=O)N1CC[C@@H]2[C@H]1c1cc(-c3ccc(OC)cc3)ccc1N(C)[C@H]2CO | > 42 µM (inactive)
COCC(=O)N1CC[C@H]2[C@@H]1c1cc(-c3ccc(OC)cc3)ccc1N(C)[C@H]2CO | > 39 µM (inactive)
Nc1ccc(OCCCc2c(N)nc(N)nc2N)cc1 | > 39 µM (inactive)
N=C(N)c1ccc(N=Nc2c(O)ccc3c2[nH]c2ccccc23)cc1 | > 39 µM (inactive)
CCC(=O)N1CC[C@@H]2[C@@H](CO)N(C)c3ccc(-c4ccccc4)cc3[C@@H]21 | > 42 µM (inactive)
CCOc1ccccc1/C=C/c1onc(C)c1S(=O)(=O)N1CCC(C(=O)NC)CC1 | > 39 µM (inactive)
Cc1ccc(S(=O)(=O)N2CC(CBr)=CCC2c2ccccc2)cc1 (stereo not given) | > 39 µM (inactive)
Cc1ccc2nc(-c3ccc4c(c3)OCCO4)cn2c1 | > 39 µM (inactive)
CC1=NCCc2c1[nH]c1cc(O)ccc21 | 9.94 µM
Cc1cccc(OCCC(=O)NCC(=O)Nc2cccc(C)c2C)c1 | > 39 µM (inactive)
CCCNC(=O)C[C@H]1CC[C@@H]2[C@H](COc3ccc(NC(=O)c4ccc(Cl)cc4)cc3C(=O)N2C)O1 | > 39 µM (inactive)

same assay, conditions: recombinant TcdB glycohydrolase activity, at 10 µM (top of the series)

SMILES | activity change, negative = inhibition
COc1ccc2[nH]c3c(=O)n(CCCCC(=O)NCCN4CCCC4)c(=S)[nH]c3c2c1 | inactive

same assay, conditions: recombinant TcdB glycohydrolase activity, at 19.5 µM (top of the series)

SMILES | activity change, negative = inhibition
Cc1cc(/C=C(\C#N)C(=O)N2CCCCC2)cc(C)c1O | inactive
COCc1c(Br)c(C)nc(OCC(=O)N/N=C/c2ccc(C)o2)c1C#N | inactive
COc1ccc(N2CCN(CCNC(=O)Nc3cc(Cl)ccc3OC)CC2)cc1 | inactive
S=C(c1cn(Cc2ccccc2)c2ccccc12)N1CCOCC1 | inactive
Cc1ccc(NNC(=O)c2ccno2)c(C)c1 | inactive
CSc1nc(Cl)cc(Nc2ccc(O)cc2)n1 | inactive
C/C(=N\NC(=O)c1ccccc1O)c1cccc(NC(=O)c2ccccc2)c1 | inactive
CCCc1cc(-c2n[nH]c(C(=O)OCC)c2-c2cscn2)c(O)cc1O | inactive
CC(C)Cc1[nH]c(=O)c(C#N)c2c1CCC2 | inactive
OCC[C@H]1C[C@H](O)[C@@H](O)[C@@]2(Cc3ccccc3CO2)O1 | inactive
CCN(CC)C(=O)C1CCN(S(=O)(=O)c2c(C)noc2/C=C/c2cccc(C)c2)CC1 | inactive
COCCCNC(=O)C1CCN(S(=O)(=O)c2c(C)noc2/C=C\c2ccc(OC)cc2)CC1 | inactive
O=C(c1cn(-c2ccccc2)nc1-c1ccncc1)n1nnc2ccccc21 | inactive
Cc1ccc(S(=O)(=O)Oc2cccc(/C=N/n3cnnc3)c2)cc1 | inactive
NS(=O)(=O)c1cccc(NC(=O)c2ccc(NS(=O)(=O)c3cccc([N+](=O)[O-])c3)cc2)c1 | inactive
COCC(=O)N1CC[C@@H]2[C@H]1c1cc(-c3ccccc3)ccc1N(C)[C@H]2CO | inactive
Cc1cscc1-c1nc(NCC2CC2)nc2ccsc12 | inactive
Cc1ccc(NNC(=O)C2CCC2)cc1C | inactive
O=c1[nH]c(CSc2nnc(Cc3ccccc3)o2)nc2ccccc12 | inactive
O=C(N/N=C/c1ccc(O)cc1)NC12CC3CC(CC(C3)C1)C2 | inactive
O=C(c1ccc([N+](=O)[O-])cc1)N1CCN(c2cccc3[nH]ccc23)CC1 | inactive
Cc1ccccc1NS(=O)(=O)c1ccc(OCC(=O)N2CCCCC2)cc1 | inactive
COc1cc(/C=N/NC(=O)C2(O)c3ccccc3-c3ccccc32)ccc1O | inactive
CCOc1ccc2ccccc2c1/C=N/NC(=O)c1ccncc1 | inactive
C=CC[C@@H](CC(=O)N(CCO)Cc1ccccc1)C(=O)NC[C@@H](OC(=O)[C@@H](CC=C)CC(=O)OC(C)(C)C)c1ccccc1 | inactive

SMILES | activity change, negative = inhibition
CNC(=S)N/N=C/c1c(C(=O)OC)cnn1-c1ccc(F)cc1F | inactive
CCOC(=O)N1CCN=C1SCc1ccc(Cl)c(Cl)c1 | inactive
CC(C)Cc1cc(C(=O)N2CCCC(CO)(Cc3ccc(F)cc3)C2)no1 (stereo not given) | inactive
C[C@H]1CN([C@@H](C)CO)C(=O)c2c(c3ccccc3n2C)-c2ccccc2CO[C@H]1CN(C)C | inactive
Clc1ccc(/C=C/c2ncc[nH]2)c(Cl)c1 | inactive
CN(C)c1ccc(NC(=O)/C=C/c2c(Cl)cccc2Cl)cc1 | inactive
CCCCn1c(-c2ccccc2C)nc2cc3[nH]c(=O)c(C(C)C)nc3cc21 | inactive
CCCc1[nH]c(=O)c(C#N)c2c1CCCC2 | inactive
CCCCn1c(N)c(N(CC)C(=O)c2cccs2)c(=O)[nH]c1=O | inactive
O=c1[nH]c(/C=C\c2ccc(O)cc2)nc(O)c1[N+](=O)[O-] | inactive
Cn1cc(C(CO)Cc2ccccc2)c2ccccc21 (stereo not given) | inactive
S=c1nc(-c2ccc(Cl)cc2)[nH][nH]1 | inactive
C=CCNc1n[nH]c(=S)s1 | inactive
CC(=O)Nc1n[nH]c(=S)s1 | inactive
COC(=O)C[C@H]1CC[C@@H]2[C@@H](COc3ccc(NC(=O)c4cccc(OC)c4)cc3C(=O)N2C)O1 | inactive
CNC(=O)C1CCN(S(=O)(=O)c2c(C)noc2/C=C/c2cccc(OC)c2)CC1 | inactive
CC1CC(=O)N(c2ccc(NCCc3ccc(O)cc3)c([N+](=O)[O-])c2)C1=O (stereo not given) | inactive
CC1C(c2ccc3c(c2)OCO3)c2cc3c(cc2OC1N1CCOCC1)OCO3 (stereo not given) | inactive
N#Cc1ccc(C(=O)N/N=C/c2cn(CC(=O)O)c3ccccc23)c(F)c1 | inactive
CN(C)c1ccc(/C=C/c2cccc[n+]2[O-])cc1 | inactive
CC(C(=O)OCC(=O)c1c(N)n(C)c(=O)n(C)c1=O)N1C(=O)c2ccccc2C1=O (stereo not given) | inactive
C/C(CCc1ccccc1)=N\NC(=O)C1C2CCCCC21 (stereo not given) | inactive
CNC(=O)N(O)C1N(/N=C/c2cccs2)C(=S)SC1(C)C (stereo not given) | inactive
Nc1c(Cl)ncnc1NCCc1ccc(O)cc1 | inactive
CNC(=O)C[C@H]1CC[C@@H]2[C@@H](COc3ccc(NC(=O)c4cccc(OC)c4)cc3C(=O)N2C)O1 | inactive

SMILES | activity change, negative = inhibition
COc1ccc2nccc(/C=C/c3ccnc4ccc(OC)cc34)c2c1 | inactive
COC(=O)[C@H]1C[C@@H]1[C@H](NP(=O)(c1ccccc1)c1ccccc1)c1ccccc1 | inactive
CC12CCC3C(=CCc4cc(O)ccc43)C1CC(=NO)C2O (stereo not given) | inactive
O=C1Cc2cc(S(=O)(=O)NCc3ccccc3Cl)cc3c2N1CCC3 | inactive
Cc1ccc(C2=NS(=O)(=O)N(C)C(C(=O)NCc3ccccc3)=C2)cc1 | inactive
CC(C)(C)C(=O)C1=C(O)C(=O)N(c2ccccc2)C1c1ccccc1 (stereo not given) | inactive
O=C(Nc1ccc(O)cc1)/C(=C\c1cccs1)NC(=O)c1ccccc1 | inactive
Cc1ccc(-c2cc(C(=O)OC3CCOC3=O)c3ccccc3n2)c(C)c1 (stereo not given) | inactive
COc1ccccc1/C=C/c1onc(C)c1S(=O)(=O)N1CCC(C(=O)NC(C)C)CC1 | inactive
CNC(=O)C[C@H]1CC[C@@H]2[C@H](COc3ccc(NC(=O)c4ccc(OC)cc4)cc3C(=O)N2C)O1 | inactive
CCCCCCCN1C(N(C)C)=NC[C@@H]1Cc1ccccc1 | inactive
COC(=O)[C@@]12CCCCN1[C@H](c1ccc(-c3ccccc3)c(OC)c1)[C@H]1C(=O)N(C)C(=O)[C@H]12 | inactive
Cc1cc(C)nc(NC(N)=NCCc2ccccc2)n1 | inactive
CN(c1ccc(O)cc1)c1nc(-c2cccnc2)cs1 | inactive
COCC(=O)N1CC[C@@H]2[C@H]1c1cc(-c3ccc(F)cc3)ccc1N(C)[C@H]2CO | inactive
COCCNc1cc(N)c([N+](=O)[O-])cc1[N+](=O)[O-] | inactive
O=C(O)C1C(=O)NCC1c1ccccc1 (stereo not given) | inactive
COc1ccc(CCNC(=O)CCCn2nc(C)n3ccnc3c2=O)cc1OC | inactive
Cc1noc(/C=C/c2ccccc2F)c1S(=O)(=O)N1CCC(C(=O)N2CCN(C)CC2)CC1 | inactive
CC(C)CN1CCN(CC#Cc2ccccc2)CC1CCO (stereo not given) | inactive
Cc1ccc(Oc2c(CO)c(-c3ccccc3)nn2C)cc1 | inactive
CC1(C)OC2C(O1)[C@@H](CO)O[C@H]2n1cnc2c(N)ncnc21 (stereo not given in full) | inactive
CCOC(=O)c1nnn(-c2nonc2N)c1-c1ccccc1Cl | inactive
COc1ccc(CNCCc2ccc3c(c2)OCO3)cc1Br | inactive

same assay, conditions: recombinant TcdB glycohydrolase activity, at 21 µM (top of the series)

SMILES | activity change, negative = inhibition
CN(C)CC(=O)N1CC[C@@H]2[C@H]1c1cc(-c3ccccc3)ccc1N(C)[C@H]2CO | inactive
CNC(=O)C[C@H]1CC[C@@H]2[C@H](COc3ccc(NS(=O)(=O)c4ccccc4C)cc3C(=O)N2C)O1 | inactive
